Data from ChEMBL document CHEMBL1201862, “PubChem BioAssay data set” (2004).
The source made the active and inactive calls.

Assays:
[1] = biological target: Glyceraldehyde-3-phosphate dehydrogenase (Homo sapiens, UniProt P04406)
Bcl-2-related protein A1 [2] = biological target: T1, Bcl-2-related protein A1 (Mus musculus, UniProt Q07440); test: Bfl-1 inhibitors blocking BH3 peptide binding, confirmation, biochemical, TR-FRET, mouse Bfl-1 (AID 621);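 also: TR-FRET binding of GST-Bfl-1 to FITC-labelled Bid peptide via terbium antibody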
T1 sequence (Q07440 whole entry): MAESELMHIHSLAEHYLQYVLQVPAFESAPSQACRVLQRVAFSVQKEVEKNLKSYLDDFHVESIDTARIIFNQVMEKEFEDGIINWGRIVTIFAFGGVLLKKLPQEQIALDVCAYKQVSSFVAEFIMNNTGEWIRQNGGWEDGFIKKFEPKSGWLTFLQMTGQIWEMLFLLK

Bcl-2-related protein A1 [3] = biological target: T1, Bcl-2-related protein A1; test: Bfl-1 binding inhibitors, SAR follow-up, biochemical, fluorescence polarization (AID 1070)
[4] = system: Streptococcus sp. 'group A'; test: growth inhibition of control SK(-) GAS strain, dose response, counter-screen for streptokinase expression inhibitor project, luminescence, kanamycin, BacTiterGlo, confirmation (AID 1900); assay type: functional, organism-based
Streptokinase A = biological target: T2, Streptokinase A (Streptococcus pyogenes serotype M1, UniProt P10520); test: S. pyogenes streptokinase expression inhibitors, potency, dose response, plasminogen activation absorbance, OD405 (AID 1914); assay type: functional, Streptococcus pyogenes M1 GAS;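 also: secreted streptokinase activity via plasminogen activation per viability signal from cell pellet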
T2 sequence (P10520 whole entry): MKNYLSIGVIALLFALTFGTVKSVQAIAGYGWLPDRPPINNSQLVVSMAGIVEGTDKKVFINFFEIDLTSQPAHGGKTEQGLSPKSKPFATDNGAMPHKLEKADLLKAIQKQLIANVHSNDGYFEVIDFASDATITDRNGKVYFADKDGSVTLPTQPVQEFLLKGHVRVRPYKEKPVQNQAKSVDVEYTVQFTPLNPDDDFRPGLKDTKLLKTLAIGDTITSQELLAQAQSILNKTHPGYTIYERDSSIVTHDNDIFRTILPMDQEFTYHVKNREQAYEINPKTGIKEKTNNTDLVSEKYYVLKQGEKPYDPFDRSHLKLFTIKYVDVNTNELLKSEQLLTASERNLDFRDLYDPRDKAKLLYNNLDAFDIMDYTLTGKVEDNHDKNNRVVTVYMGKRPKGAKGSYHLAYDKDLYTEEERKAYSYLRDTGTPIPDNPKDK

[5] = biological target: T3, Calpain-2 catalytic subunit (Sus scrofa, UniProt P43367); test: pig calpain II inhibitor potency, dose response, biochemical, fluorogenic peptide substrate (AID 1420); assay type: functional
T3 sequence (P43367 whole entry): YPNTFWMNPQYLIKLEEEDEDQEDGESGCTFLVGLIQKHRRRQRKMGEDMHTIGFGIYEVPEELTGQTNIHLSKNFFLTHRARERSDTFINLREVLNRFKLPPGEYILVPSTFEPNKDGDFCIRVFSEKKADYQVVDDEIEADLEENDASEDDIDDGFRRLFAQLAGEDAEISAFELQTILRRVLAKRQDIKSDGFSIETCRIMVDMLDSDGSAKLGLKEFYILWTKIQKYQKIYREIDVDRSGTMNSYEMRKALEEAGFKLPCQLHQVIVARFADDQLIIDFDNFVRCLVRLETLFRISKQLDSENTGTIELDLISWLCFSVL

[6] = biological target: Induced myeloid leukemia cell differentiation protein Mcl-1 (Homo sapiens, UniProt Q07820); assay type: functional
Streptococcus = test: Group A Streptococcus viability loss, dose response, counter-screen for streptokinase expression inhibitor project, luminescence, BacTiterGlo (AID 1915); assay type: functional, organism-based;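 also: potency for reduction of bacterial viability or growth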
[7] = biological target: T4, Microphthalmia-associated transcription factor (Homo sapiens, UniProt O75030); test: TRPM1 promoter luciferase signal decrease, dose response, MITF inhibitor project, cell-based, SK-MEL-5, cherry-picked, set 3 (AID 493073); assay type: functional
T4 sequence (O75030 whole entry): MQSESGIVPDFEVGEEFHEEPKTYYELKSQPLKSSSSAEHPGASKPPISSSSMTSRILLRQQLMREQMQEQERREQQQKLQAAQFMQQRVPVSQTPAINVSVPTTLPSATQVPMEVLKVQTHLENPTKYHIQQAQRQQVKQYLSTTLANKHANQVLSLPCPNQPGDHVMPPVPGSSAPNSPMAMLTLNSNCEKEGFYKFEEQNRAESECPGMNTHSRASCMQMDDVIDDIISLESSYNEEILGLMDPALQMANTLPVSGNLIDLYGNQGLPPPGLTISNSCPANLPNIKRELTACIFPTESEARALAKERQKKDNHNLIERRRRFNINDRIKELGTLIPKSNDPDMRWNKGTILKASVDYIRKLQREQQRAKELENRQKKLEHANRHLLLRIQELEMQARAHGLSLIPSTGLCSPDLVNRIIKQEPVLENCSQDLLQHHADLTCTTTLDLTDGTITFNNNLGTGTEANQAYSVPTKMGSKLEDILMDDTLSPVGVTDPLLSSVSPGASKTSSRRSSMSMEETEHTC

[8] = LGR2 antagonists, dose response, cell-based, HEK293, CRE-luciferase reporter, cherry pick, set 2 (AID 743343); assay type: functional;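 also: transfected cells were stimulated with diluted bursicon conditioned medium after compound addition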
[9] = MC4R antagonists, dose response, counter-screen for LGR2 antagonist project, cell-based, plate reader, cherry pick (AID 743444); assay type: functional;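 also: transfected HEK 293 cells stimulated with alpha-MSH peptide; potency of inhibitors of the alpha-MSH evoked signal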
[10] = inhibitors of intracellular T. cruzi replication, confirmation, NIH3T3 host cells, beta-gal luminescence (AID 2044); assay type: functional, cell-based;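 also: intracellular parasites grown in NIH/3T3 mouse fibroblasts as host cells; luminescent beta-galactosidase reporter signal from transgenic T. cruzi replicating inside host cells; inhibitors lower the luminescence signal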
[11] = cytotoxicity toward NIH3T3 fibroblasts, dose response, counter-screen, cell-based, ATP luminescence, mouse fibroblasts (AID 2010); assay type: functional;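 also: cells exposed to compound for about 90 hours before reading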
[12] = biological target: T5, Short transient receptor potential channel 4 (Mus musculus, UniProt Q9QUQ5); test: mouse TRPC4 channel activators, dose response, cell-based, HEK293 TRPC4/mu-opioid, Fluo-4 calcium (AID 434937); assay type: functional
T5 sequence (Q9QUQ5 whole entry): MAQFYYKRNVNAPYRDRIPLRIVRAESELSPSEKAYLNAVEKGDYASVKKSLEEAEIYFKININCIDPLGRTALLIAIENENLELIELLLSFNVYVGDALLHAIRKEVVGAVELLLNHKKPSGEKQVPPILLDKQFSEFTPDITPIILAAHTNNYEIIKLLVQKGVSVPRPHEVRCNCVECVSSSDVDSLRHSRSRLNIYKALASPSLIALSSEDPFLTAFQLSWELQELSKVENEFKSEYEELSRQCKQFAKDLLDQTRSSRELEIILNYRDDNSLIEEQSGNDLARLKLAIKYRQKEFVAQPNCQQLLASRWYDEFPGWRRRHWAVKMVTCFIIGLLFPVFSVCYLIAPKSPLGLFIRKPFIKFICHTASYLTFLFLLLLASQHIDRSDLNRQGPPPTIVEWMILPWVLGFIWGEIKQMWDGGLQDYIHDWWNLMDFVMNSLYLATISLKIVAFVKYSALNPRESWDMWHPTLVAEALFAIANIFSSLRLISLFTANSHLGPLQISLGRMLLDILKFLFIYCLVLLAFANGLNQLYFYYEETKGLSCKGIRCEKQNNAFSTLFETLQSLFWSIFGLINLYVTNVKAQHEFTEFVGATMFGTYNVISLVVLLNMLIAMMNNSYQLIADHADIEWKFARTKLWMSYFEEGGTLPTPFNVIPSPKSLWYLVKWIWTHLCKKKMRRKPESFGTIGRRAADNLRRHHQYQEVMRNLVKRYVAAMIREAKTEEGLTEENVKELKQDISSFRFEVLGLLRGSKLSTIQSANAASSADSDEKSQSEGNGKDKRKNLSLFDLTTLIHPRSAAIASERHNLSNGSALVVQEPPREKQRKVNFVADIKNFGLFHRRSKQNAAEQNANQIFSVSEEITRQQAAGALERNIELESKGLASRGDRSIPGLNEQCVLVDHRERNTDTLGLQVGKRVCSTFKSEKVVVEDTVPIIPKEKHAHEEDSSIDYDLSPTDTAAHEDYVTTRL

[13] = biological target: T5, Short transient receptor potential channel 4; test: mouse TRPC4 channel inhibitors, dose response, cell-based, HEK293 TRPC4/mu-opioid, Fluo-4 calcium (AID 434942); assay type: functional;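 also: potency of inhibitors blocking the TRPC4 calcium response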
Aminopeptidase N = biological target: T6, Aminopeptidase N (Plasmodium falciparum FcB1/Columbia, UniProt O96935); test: P. falciparum M1AAP inhibitors, biochemical, fluorogenic H-Leu-NHMec substrate, 1536-well (AID 1445); parameters: species or system Plasmodium falciparum 3D7, 3D7
T6 sequence (O96935 whole entry): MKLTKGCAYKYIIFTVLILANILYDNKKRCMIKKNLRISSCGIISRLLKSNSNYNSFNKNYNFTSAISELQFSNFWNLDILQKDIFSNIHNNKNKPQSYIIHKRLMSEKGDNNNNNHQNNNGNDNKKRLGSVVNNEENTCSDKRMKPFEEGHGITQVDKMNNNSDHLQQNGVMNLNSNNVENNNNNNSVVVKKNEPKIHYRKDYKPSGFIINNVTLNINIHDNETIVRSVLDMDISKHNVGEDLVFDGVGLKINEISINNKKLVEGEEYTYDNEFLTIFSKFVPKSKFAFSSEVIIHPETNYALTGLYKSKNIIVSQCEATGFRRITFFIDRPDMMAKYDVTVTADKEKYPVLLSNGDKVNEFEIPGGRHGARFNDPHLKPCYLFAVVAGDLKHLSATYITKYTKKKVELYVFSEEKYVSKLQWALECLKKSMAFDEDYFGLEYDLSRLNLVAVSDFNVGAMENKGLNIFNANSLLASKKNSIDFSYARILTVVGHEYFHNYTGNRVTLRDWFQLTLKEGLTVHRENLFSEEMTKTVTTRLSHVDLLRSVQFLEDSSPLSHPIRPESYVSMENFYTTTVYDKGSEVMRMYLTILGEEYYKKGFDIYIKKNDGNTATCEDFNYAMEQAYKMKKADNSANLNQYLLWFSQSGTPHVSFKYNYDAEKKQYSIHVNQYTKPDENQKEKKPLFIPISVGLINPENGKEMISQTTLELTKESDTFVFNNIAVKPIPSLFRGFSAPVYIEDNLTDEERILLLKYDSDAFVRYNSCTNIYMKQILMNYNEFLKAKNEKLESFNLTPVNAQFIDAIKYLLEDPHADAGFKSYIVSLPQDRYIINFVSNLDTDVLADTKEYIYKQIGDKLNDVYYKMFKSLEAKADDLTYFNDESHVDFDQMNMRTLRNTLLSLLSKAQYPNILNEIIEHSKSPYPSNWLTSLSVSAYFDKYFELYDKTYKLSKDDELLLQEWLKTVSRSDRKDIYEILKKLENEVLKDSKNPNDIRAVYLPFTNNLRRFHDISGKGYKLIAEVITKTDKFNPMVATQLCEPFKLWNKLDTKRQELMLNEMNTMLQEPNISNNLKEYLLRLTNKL

HEK293 [14] = test: cells; assay type: functional, cell-based; details: Homo sapiens
HEK293 [15] = test: cells; assay type: functional, cell-based; details: Homo sapiens; remark: listed apart in the source
HEK293 [16] = test: NOD2 signaling inhibitors in MDP-stimulated cells, cell-based, uHTS, luminescence (AID 2001); assay type: functional; details: Homo sapiens
Genome polyprotein = Genome polyprotein (dengue virus type 2, UniProt P29990); test: Dengue-2 NS5 methyltransferase inhibitors, primary screen, biochemical, confirmation dose response (AID 588689); assay type: functional
Cytochrome P450 2D6 = Cytochrome P450 2D6 (Homo sapiens, UniProt P10635);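 also: CYP2D6 member of a cytochrome P450 panel assay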
Cytochrome P450 1A2 = biological target: T7, Cytochrome P450 1A2 (Homo sapiens, UniProt P05177);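 also: PubChem cytochrome P450 panel assay, CYP1A2 panel member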
T7 sequence (P05177 whole entry): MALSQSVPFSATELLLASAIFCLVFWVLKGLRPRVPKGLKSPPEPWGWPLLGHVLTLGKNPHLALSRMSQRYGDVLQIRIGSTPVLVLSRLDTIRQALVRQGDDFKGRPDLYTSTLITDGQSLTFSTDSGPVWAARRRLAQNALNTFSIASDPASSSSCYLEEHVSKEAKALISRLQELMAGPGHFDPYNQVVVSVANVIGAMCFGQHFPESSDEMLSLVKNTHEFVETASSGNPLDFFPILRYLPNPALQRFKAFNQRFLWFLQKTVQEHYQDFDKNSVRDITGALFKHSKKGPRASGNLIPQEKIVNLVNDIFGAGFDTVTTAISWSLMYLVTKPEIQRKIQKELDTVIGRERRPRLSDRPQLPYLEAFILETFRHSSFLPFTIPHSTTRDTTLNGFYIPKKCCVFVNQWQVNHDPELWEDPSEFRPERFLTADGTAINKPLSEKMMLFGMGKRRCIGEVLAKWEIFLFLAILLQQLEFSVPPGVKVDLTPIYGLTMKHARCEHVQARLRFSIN

Chain of Glyceraldehyde-3-phosphate dehydrogenase (P04406 whole entry): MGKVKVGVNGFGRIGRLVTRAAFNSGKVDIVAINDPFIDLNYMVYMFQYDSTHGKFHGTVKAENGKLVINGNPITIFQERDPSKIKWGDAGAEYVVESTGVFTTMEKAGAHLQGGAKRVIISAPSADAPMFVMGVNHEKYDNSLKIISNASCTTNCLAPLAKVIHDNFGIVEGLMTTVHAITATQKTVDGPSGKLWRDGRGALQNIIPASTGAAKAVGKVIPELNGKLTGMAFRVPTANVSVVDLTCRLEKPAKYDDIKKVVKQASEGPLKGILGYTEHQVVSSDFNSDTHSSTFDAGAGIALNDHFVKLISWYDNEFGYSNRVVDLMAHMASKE
Chain of Genome polyprotein (P29990 2492-3391 limits assumed): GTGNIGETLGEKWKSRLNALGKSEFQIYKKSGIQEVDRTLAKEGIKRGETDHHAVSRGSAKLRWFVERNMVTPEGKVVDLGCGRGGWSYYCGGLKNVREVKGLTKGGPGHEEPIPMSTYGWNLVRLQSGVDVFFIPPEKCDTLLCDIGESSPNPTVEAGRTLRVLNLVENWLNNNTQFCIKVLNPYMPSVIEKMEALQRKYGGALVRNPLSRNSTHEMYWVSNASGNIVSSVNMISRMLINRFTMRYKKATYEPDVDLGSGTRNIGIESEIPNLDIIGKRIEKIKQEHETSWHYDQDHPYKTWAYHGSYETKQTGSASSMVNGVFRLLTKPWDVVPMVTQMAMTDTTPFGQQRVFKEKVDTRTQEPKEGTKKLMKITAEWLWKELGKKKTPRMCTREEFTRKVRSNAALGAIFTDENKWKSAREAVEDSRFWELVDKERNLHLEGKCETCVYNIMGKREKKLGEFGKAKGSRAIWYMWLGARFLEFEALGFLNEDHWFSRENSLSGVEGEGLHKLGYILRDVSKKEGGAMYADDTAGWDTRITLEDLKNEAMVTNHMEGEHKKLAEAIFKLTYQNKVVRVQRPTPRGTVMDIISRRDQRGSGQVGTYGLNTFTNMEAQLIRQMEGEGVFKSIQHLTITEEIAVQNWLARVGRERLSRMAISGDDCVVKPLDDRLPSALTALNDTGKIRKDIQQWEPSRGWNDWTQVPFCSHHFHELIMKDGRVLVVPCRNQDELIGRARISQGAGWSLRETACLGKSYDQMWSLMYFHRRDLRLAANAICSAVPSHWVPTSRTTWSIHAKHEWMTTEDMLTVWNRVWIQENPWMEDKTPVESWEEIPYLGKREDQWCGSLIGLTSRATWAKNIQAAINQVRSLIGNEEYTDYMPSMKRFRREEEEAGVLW
Chain of Induced myeloid leukemia cell differentiation protein Mcl-1 (Q07820 whole entry): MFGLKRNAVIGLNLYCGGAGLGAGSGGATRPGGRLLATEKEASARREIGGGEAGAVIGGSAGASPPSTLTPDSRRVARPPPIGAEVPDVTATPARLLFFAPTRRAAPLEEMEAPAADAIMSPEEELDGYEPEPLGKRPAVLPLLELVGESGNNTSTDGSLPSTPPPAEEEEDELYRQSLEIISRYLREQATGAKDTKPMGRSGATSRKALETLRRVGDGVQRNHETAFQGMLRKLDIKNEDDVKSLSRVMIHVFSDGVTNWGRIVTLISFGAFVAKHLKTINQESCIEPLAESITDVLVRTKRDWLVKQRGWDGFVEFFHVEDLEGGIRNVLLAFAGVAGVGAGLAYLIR
Chain of Cytochrome P450 2D6 (P10635 whole entry): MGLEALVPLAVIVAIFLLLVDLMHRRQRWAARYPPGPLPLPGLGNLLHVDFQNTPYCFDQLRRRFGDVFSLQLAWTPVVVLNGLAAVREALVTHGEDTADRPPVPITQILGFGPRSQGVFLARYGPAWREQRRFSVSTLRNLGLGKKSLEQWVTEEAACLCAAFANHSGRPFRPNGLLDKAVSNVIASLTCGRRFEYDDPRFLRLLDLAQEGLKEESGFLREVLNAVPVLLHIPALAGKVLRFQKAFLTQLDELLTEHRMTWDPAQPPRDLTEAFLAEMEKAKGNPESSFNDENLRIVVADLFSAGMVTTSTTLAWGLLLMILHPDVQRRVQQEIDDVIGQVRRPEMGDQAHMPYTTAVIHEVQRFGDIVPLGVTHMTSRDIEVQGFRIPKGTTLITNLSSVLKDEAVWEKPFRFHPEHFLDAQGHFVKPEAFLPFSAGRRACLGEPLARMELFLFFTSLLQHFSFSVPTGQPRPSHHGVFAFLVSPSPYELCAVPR

SMILES | IC50 [1] | IC50 (Bcl-2-related protein A1 [2]) | IC50 (Bcl-2-related protein A1 [3]) | EC50 [10] | EC50 [11] | EC50 (cells) | also measured
O=C1C(Cl)=C(N2CCOCC2)C(=O)N1c1cccc([N+](=O)[O-])c1 | > 100 µM (not active) | 8.21 µM (active) | 9.68 µM (active) | – | – | – | –
O=C(O)c1ccc(N/N=C/c2ccc(OC(=O)c3cccc(Cl)c3)cc2)cc1 | – | – | – | – | – | – | EC50 [4]: 0.834 µM (active); EC50 (Streptokinase A): > 150 µM (not active); IC50 [5]: 3.04 µM (not active); IC50 [6]: 8.08 µM (active); EC50 (Streptococcus): 15.5 µM (active); AC50 [7]: 3.21 µM (active); AC50 [8]: 2.03 µM (active); AC50 [9]: 1.21 µM (active)
CN1CCN(C2=C(Cl)C(=O)N(c3ccccc3Cl)C2=O)CC1 | > 100 µM (not active) | 1.45 µM (active) | 2.16 µM (active) | – | – | – | –
COc1ccccc1/C=C/CN1CCCC(CCC(=O)NCc2ccccc2F)C1 (stereo unspecified) | – | – | – | < 0.1 µM (active) | > 60 µM (not active) | 0.025 µM (active) | EC50 [12]: 0.473 µM (active)
Clc1ccc(C[n+]2cc(-c3ccccc3)n3c2CCC3)cc1Cl | – | – | – | < 0.1 µM (active) | > 30 µM (not active) | 0.004 µM (active) | EC50 [13]: 3.76 µM (active)
O=S(=O)(Nc1nc(-c2sccc2Cl)cs1)c1cc(Cl)ccc1Cl | – | – | – | – | – | – | IC50 (Aminopeptidase N): 44.1 µM (active); IC50 (HEK293 [14]): 10.4 µM (active); IC50 (HEK293 [15]): 17.7 µM (active); IC50 (HEK293 [16]): 7.47 µM (active); IC50 [5]: 5 µM (not active); IC50 (Genome polyprotein): 41.6 µM (active); AC50 (Cytochrome P450 2D6): 28.2 µM (inconclusive); AC50 (Cytochrome P450 1A2): 28.2 µM (inconclusive)
CN(C)C1=C(Cl)C(=O)N(c2ccc(Cl)c(Cl)c2)C1=O | > 100 µM (not active) | 0.54 µM (active) | 0.419 µM (active) | – | – | – | –
COc1ccc(CCNCc2ccc(OCc3ccc(Cl)nc3)c(OC)c2)cc1OC | – | – | – | < 0.1 µM (active) | > 60 µM (inconclusive) | 0.048 µM (active) | –
